Data published in US20180140545A1, “ANTIMICROBIAL PEPTIDE STIMULATING SANITIZING COMPOSITION” (GOJO Industries, Inc., priority 2016, published 2018).

How the values were obtained:
Assay type in all cases: cell-based
HBD-3 = HBD-3 ELISA, dose response in Neonatal Human Epidermal Keratinocytes; settings: for HBD-3: NHEK, overnight (16 hours); for increase in HBD-3 production and/or activity: vs control culture medium
Protocol: (§1) To determine the optimal dose of active ingredient, test dose response studies were run using both Decorinyl® and Pamitoyl Pentapeptided-3. These test dose response studies were commissioned to determine the concentration of HBD-3 at various levels of the active ingredients. Neonatal Human Epidermal Keratinocytes (NHEK; Life Technology, Grand Island, N.Y., USA) were cultured with keratinocyte growth medium (KGM, Medium 154: M-154-500 Life Technology with supplements S-001, Life Technologies). NHEK were seeded into 96-well plates at a density of 10000 cells in 200 μl medium per well. After 48 hours, the cells were incubated with varying concentrations of each ingredient solution in a culture medium (KGM) overnight (16 hours) at 37° C., 5% CO2 and 95% humidity at four replicates for each concentration. Each of these active ingredients was tested at the following weight percents based on the weight of the total culture: 0.02 wt. %, 0.05 wt. %, 0.1 wt. %, 0.2 wt. %, 0.5 wt. %, 1.0 wt. %, 2.0 wt. %. Each of these compositions was compared to a control culture medium.
(§2) HBD-3 was detected using HBD-3 ELISA developing kits (commercially available from Peprotech). ELISA were performed according to the manufactory instructions of each kit by adding 100 μl/well of culture medium after overnight treatment. The substrate of ELISA reaction was using the substrate reagent from R&D Systems (DY999), and the reactions were stopped by adding 50 μl of 1N H2SO4 in each well. The results were measured using a colorimeter, absorbance was measured at 450 nanometers (nm) within 30 minutes. Wavelength correction was set to 570 nm. The concentration of each sample was calculated using ELISA standard curve.

HBD-1 = HBD-1 ELISA, dose response in Neonatal Human Epidermal Keratinocytes; settings: for HBD-1: NHEK, overnight (16 hours); for increase in HBD-1 production and/or activity: vs control culture medium
Protocol: as §1, with “HBD-1” for “HBD-3”
as §2, with “HBD-1 was detected” for “HBD-3 was detected”, “detected using HBD-1 ELISA (enzyme-linked” for “detected using HBD-3 ELISA developing”, “HBD-1 ELISA (enzyme-linked immunosorbent assay) developing kits” for “HBD-3 ELISA developing kits”

HBD-2 = HBD-2 ELISA, dose response in Neonatal Human Epidermal Keratinocytes; settings: for HBD-2: NHEK, overnight (16 hours)
Protocol: as §1, with “of HBD-2” for “of HBD-3”, “ingredients were” for “ingredients was”
as §2, with “HBD-2” for “HBD-3”

Substance: palmitoyl pentapeptide-3 [Pamitoyl Pentapeptided-3]
- HBD-3 (HBD-3; 0.02% active ingredient): 288 pg/mL
- HBD-3 (HBD-3; 0.05% active ingredient): 242 pg/mL
- HBD-3 (HBD-3; 0.1% active ingredient): 387 pg/mL
- HBD-3 (HBD-3; 0.2% active ingredient): 775 pg/mL
- HBD-3 (HBD-3; 0.5% active ingredient): 2278 pg/mL
- HBD-3 (HBD-3; 1% active ingredient): 4783 pg/mL
- increase in HBD-3 production and/or activity (HBD-3; 1.0 wt. %): 1005%
- HBD-3 (HBD-3; 2% active ingredient): 8617 pg/mL
- increase in HBD-3 production and/or activity (HBD-3; 2.0 wt. %): 1890%
- HBD-1 (HBD-1; 0.02% active ingredient): 59 pg/mL
- HBD-1 (HBD-1; 0.05% active ingredient): 57 pg/mL
- HBD-1 (HBD-1; 0.1% active ingredient): 64 pg/mL
- HBD-1 (HBD-1; 0.2% active ingredient): 85 pg/mL
- HBD-1 (HBD-1; 0.5% active ingredient): 162 pg/mL
- HBD-1 (HBD-1; 1% active ingredient): 259 pg/mL
- increase in HBD-1 production and/or activity (HBD-1; 1.0 wt. %): 311%
- HBD-1 (HBD-1; 2% active ingredient): 1047 pg/mL
- increase in HBD-1 production and/or activity (HBD-1; 2.0 wt. %): 1561%
- HBD-2 (HBD-2; 0.02% active ingredient): 9 pg/mL
- HBD-2 (HBD-2; 0.05% active ingredient): 8 pg/mL
- HBD-2 (HBD-2; 0.1% active ingredient): 9 pg/mL
- HBD-2 (HBD-2; 0.2% active ingredient): 14 pg/mL
- HBD-2 (HBD-2; 0.5% active ingredient): 21 pg/mL
- HBD-2 (HBD-2; 1% active ingredient): 72 pg/mL
- HBD-2 (HBD-2; 2% active ingredient): 203 pg/mL
- increase in HBD-2 production and/or activity (HBD-2; 2.0 wt. %, vs control culture medium): 2800%
